# Experimental data as given in patent US20230381170A1, “METHOD FOR TREATING ALS/FTD THROUGH DEGRADATION OF RNA REPEAT EXPANSION” (University of Florida Research Foundation, Incorporated, priority 2020, published 2023).
# Assays:
# [1] = system: r(G4C2)8; test: In vitro Chem-CLIP and C-Chem-CLIP; format: binding; conditions: constant 4 (500 nM), increasing concentrations of competitor
# Experimental: In vitro Chemical Cross-linking and Isolation by Pull-Down (Chem-CLIP) and Competitive Chemical Cross-linking and Isolation by Pull-Down (C-Chem-CLIP): Approximately 10,000 counts of ^32P 5′-end labeled r(G4C2)8 was folded in 1×Folding Buffer at 95° C. for 1 min. After cooling to room temperature, the Chem-CLIP probe at the desired concentrations (5, 10, 100, 500, 1000, 5000, 10000 nM) was added, and the samples were incubated at 37° C. for 18 h. For C-Chem-CLIP studies, the parent compound (10, 100, 500, 1000, 5000, 10000 nM) was incubated with RNA for 1 h before addition of the Chem-CLIP probe (500 nM).
# Cross-linked RNAs were clicked to biotin […] azide (10 μL of a 5 mM stock solution in DMSO) by incubating in a solution containing 25 mM HEPES (pH 7.1), 250 mM sodium ascorbate, 10 mM CuSO4, and 50 mM THPTA (tris-hydroxypropyltriazolylmethylamine) for 6 h at 37° C. A 300 μL of streptavidin-agarose beads (Sigma-Aldrich) was washed three times and then resuspended in 1×PBS. An aliquot (20 μL) of the slurry was added to each sample, which was incubated for 1 h at room temperature. The samples were centrifuged and the supernatant containing unbound RNA was transferred to an unused tube. The beads were then washed three times with 1×PBS supplemented with 0.10% (v/v) Tween-20 and centrifuged, with each wash supernatant being added to the tube containing unbound RNA. The amounts of radioactivity in the supernatant and associated with the beads were quantified with a Beckman Coulter LS6500 Liquid Scintillation Counter.
# [2] = system: r(G4C2)exp-containing intron 1; test: C9orf72 intron 1 RT-qPCR in c9ALS iPSC-derived spinal neurons; format: cell-based, human
# Experimental: iPSCs were differentiated into spinal neuron cells using a previously the previously described direct induced motor neuron (diMNs) differentiation protocol (58) with modifications. Briefly, iPSCs were plated into Matrigel-coated 100 mm dishes (30-40% confluence). Neuroepithelial induction was performed by replacing the iPSC maintenance medium with Stage 1 medium [47.5% IMDM (Iscove's Modified Dulbecco's Medium) medium, 47.5% F12 medium, 1% NEAA (Non-Essential Amino Acid) (Life Technologies), 2% B27 (Invitrogen), 1% N2, 1% PSA (Penicillin-Streptomycin-Amphotericin), 0.2 μM LDN193189 (Stemgent), 10 μM SB431542 ([…] Technologies) and 3 μM CHIR99021 (Sigma-Aldrich)]. After daily medium changes for 6 days, cells were detached with Accutase and seeded into 6-well plates (1.5×10^6 cells/well) in 3 mL Stage 2 medium. Cells were maintained in Stage 2 medium [Stage 1 medium supplemented with 0.1 μM All-trans RA (Sigma-Aldrich) and 1 μM *SAG (Cayman Chemicals)], with daily changes, through Day 11. […]
# Measuring Levels of C9orf72 and C9orf72 Variants by RT-qPCR. […] RNA was extracted as described above and the expression of C9orf72 variants was determined by RT-qPCR. […] RNA was extracted as described above and the expression of C9orf72 variants was determined by RT-qPCR.
# [3] = system: r(G4C2)8; test: RIBOTAC cleavage of r(G4C2)8 in vitro, FRET assay with RNase L; format: biochemical; conditions: r(G4C2)8 labeled Cy5/Cy3
# Experimental: RIBOTAC Cleavage of […] in vitro: Gel Analysis. A model of r(G4C2)^exp, r(G4C2)8 was radioactively labeled at its 5′ end and purified on a denaturing 15% polyacrylamide gel as previously described (12, 57). Then, 25 nM of labeled RNA was folded by heating at 95° C. for 5 min in 1× Rnase L buffer (25 mM Tris-HCl, pH7.4, and 100 mM NaCl) and allowed to slowly cool to room temperature. To the folded RNA was added 2-Mercaptoethanol (7 mM final concentration), ATP (50 µM final concentration), and MgCl2 (10 mM final concentration). Compound was added, and the samples were incubated for 15 min at room temperature. Next, Rnase L was added to a final concentration of 25 or 50 nM, and the samples were incubated at 37° C. (1 h or overnight). Fragments were separated on a denaturing 15% polyacrylamide gel, imaged by phosphorimaging with a Typhoon FLA 9500, and quantified with BioRad's QuantityOne software. All studies were performed in duplicate.
# RIBOTAC Cleavage of r(G4C2)8 in vitro: FRET Assay. A FRET assay was developed to monitor RIBOTAC-induced cleavage of r(G4C2)8 by Rnase L. This assay uses r(G4C2)8 labeled with Cy5 and Cy3, at the 5′ and 3′ end, respectively (Dharmacon). […] Fluorescence was measured on a Molecular Devices SpectraMax M5 plate reader (Cy3, Ex.: 554 nm; Em.: 568 nm; Cy5, Ex.: 649 nm, Em.: 666 nm; FRET, Ex.: 554 nm, Em.: 666 nm). […]
# [4] = system: transcripts containing short, non-pathogenic r(G4C2) repeats; test: Off-target RT-qPCR of genes with short r(G4C2) repeats in patient-derived LCL; format: cell-based, human; conditions: 500 nM
SMILES,"C-Chem-CLIP, RNA pulled down by 4 [1]",reduction of r(G4C2)exp-containing intron 1 abundance ([2]; 50 nM) [%],reduction of r(G4C2)exp-containing intron 1 abundance ([2]; 500 nM) [%],FRET signal upon addition of compound and Rnase L [3],abundance of eight transcripts with short r(G4C2) repeats [4]
Cc1c2ccncc2c(C)c2c1[nH]c1ccc(OCCOCCOCCNCCOCCOCCOc3ccc4[nH]c5c(C)c6ccncc6c(C)c5c4c3)cc12 [Compound 3],reduced the percentage of RNA pulled down in a dose dependent fashion,,,,
CCOC(=O)C1=C(Nc2ccccc2)S/C(=C\c2ccc(OCCOCCOCCOCCNC(=O)CCC(=O)N(CCOCCOCCOc3ccc4[nH]c5c(C)c6ccncc6c(C)c5c4c3)CCOCCOCCOc3ccc4[nH]c5c(C)c6ccncc6c(C)c5c4c3)c(O)c2)C1=O [Compound 7],,45±11,64±10,dose dependently decreased,No decrease
